Results on 15 compounds are retold here after patent US12122761B2, “2-azaspiro[3.4]octane derivatives as M4 agonists” (NOVARTIS AG, priority 2019, dated 2024).

Molecules are shown by their SMILES. pEC50: −log10 of the molar value.

The target of test [1] is T1, human cloned CHRM4 receptor (M4_CHO cells) (Homo sapiens, UniProt P08173).
T1 construct: expressed in transfected cells; host or cells: CHO-K1
T1 sequence (P08173 1-479): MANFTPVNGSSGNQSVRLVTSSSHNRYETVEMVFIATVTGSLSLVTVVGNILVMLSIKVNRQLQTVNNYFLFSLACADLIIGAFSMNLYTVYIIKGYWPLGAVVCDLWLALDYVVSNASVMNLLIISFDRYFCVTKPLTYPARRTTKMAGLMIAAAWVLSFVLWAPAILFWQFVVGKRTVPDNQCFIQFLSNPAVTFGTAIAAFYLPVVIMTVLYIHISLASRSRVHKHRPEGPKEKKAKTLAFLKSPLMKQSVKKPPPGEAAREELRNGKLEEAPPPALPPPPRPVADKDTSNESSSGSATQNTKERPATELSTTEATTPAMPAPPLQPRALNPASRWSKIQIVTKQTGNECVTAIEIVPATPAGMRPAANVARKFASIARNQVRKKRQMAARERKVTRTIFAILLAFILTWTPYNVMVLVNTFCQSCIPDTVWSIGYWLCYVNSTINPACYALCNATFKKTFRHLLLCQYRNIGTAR
In words: CHRM4 Ca++ Flux Assay (agonist mode, FDSS 7000EX). Type of test: cell-based. Particulars: for M4 FDSS PA / Emax: Percent Activity; for pEC50: geometric mean if tested more than once, read-out: M4 FDSS EC50; for Emax: read-out: M4 FDSS PA. The gist of the method: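 M4_CHO cells loaded with a Ca++ dye for at least 1 h were held 60 min at room temperature in HEPES/probenecid buffer with 20 μM ATP. Ca++ flux after an 11-point compound dose, in triplicate and agonist mode, was recorded over 3 min. Four-parameter fits gave curves, with activity expressed relative to the Carbachol EC100.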

The target in test [2] is T2, human cloned CHRM2 receptor (M2_CHO cells) (Homo sapiens, UniProt P08172).
T2 construct: expressed in transfected cells; host or cells: CHO-K1
T2 sequence (P08172 1-466): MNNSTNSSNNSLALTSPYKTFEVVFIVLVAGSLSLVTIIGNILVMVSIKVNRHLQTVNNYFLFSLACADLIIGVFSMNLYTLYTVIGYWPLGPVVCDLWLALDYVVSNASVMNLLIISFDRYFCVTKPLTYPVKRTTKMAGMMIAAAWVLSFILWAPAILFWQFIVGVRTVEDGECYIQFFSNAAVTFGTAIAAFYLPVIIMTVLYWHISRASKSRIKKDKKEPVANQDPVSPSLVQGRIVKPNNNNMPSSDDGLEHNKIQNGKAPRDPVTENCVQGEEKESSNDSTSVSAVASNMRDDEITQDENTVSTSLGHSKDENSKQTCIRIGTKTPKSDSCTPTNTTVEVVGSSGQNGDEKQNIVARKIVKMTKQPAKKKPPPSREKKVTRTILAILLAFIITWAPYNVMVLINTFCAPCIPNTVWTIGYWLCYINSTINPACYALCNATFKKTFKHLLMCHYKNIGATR
Description: CHRM2 Ca++ Flux Assay (agonist mode, FDSS 7000EX). The format is cell-based. Particulars: for M2 FDSS PA / Emax: Percent Activity measured to EC100 of Carbachol; for Emax: read-out: M2 FDSS PA. Put shortly:
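Agonist-mode Ca++ flux in CHO-K1 cells stably expressing human CHRM2, dye-loaded, then held 60 min at room temperature in buffer with 20 μM ATP before compound addition; traces read over 3 minutes. Four-parameter fit of triplicate wells; percent activity relative to Carbachol EC100.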

As a reminder, the pEC50 is the negative decadic logarithm of the EC50, by convention in mol/L. With `Cc1nc(COc2ccccc2C2CCN([C@@H]3CCC4(C3)CN(C(=O)C3(F)CC3)C4)CC2)no1` (single isomer, unassigned) [Example 7X, (R)-(1-fluorocyclopropyl)(6-(4-(2-((5-methyl-1,2,4-oxadiazol-3-yl)methoxy)phenyl)piperidin-1-yl)-2-azaspiro[3.4]octan-2-yl)methanone or (S)-(1-fluorocyclopropyl)(6-(4-(2-((5-methyl-1,2,4-oxadiazol-3-yl)methoxy)phenyl)piperidin-1-yl)-2-azaspiro[3.4]octan-2-yl)methanone], in test [1], the “M4 FDSS PA” value is 66% and the pEC50 was above 9.40. For the same compound, the “M2 FDSS PA” value in test [2] turned out to be 0%.
For `O=C1CCCN1CCOc1ccccc1C1CCN([C@@H]2CCC3(C2)CN(C(=O)C2(F)CC2)C3)CC1.O=CO` (single isomer, unassigned) [Example 7P, (R)-1-(2-(2-(1-(2-(1-fluorocyclopropane-1-carbonyl)-2-azaspiro[3.4]octan-6-yl)piperidin-4-yl)phenoxy)ethyl)pyrrolidin-2-one formate salt or (S)-1-(2-(2-(1-(2-(1-fluorocyclopropane-1-carbonyl)-2-azaspiro[3.4]octan-6-yl)piperidin-4-yl)phenoxy)ethyl)pyrrolidin-2-one formate salt], in that order: 49%, 9.00 and 0%.
`Fc1ccc(OC2CC3(COC3)C2)c(C2CCN([C@@H]3CCC4(C3)CN(c3nnco3)C4)CC2)c1` [Example 1B, (R)-2-(6-(4-(2-((2-oxaspiro[3.3]heptan-6-yl)oxy)-5-fluorophenyl)piperidin-1-yl)-2-azaspiro[3.4]octan-2-yl)-1,3,4-oxadiazole]: in test [1], the Emax turned out to be 69% and the pEC50 was 9.00. In addition, in test [2], the Emax was 0%.
Consider `COc1ccccc1C1CCN([C@@H]2CCC3(C2)CN(c2nccnc2C(F)(F)F)C3)CC1` [Example 5I, (R)-6-(4-(2-methoxyphenyl)piperidin-1-yl)-2-(3-(trifluoromethyl)pyrazin-2-yl)-2-azaspiro[3.4]octane], for which the Emax in test [1] is 16%; in test [2], 49%. Besides, the pEC50 in test [1] was 7.08; in test [2] (agonist mode, geometric mean if tested more than once, read-out: M2 FDSS EC50) it was 4.88.
On to `O=C(N1CC2(CC[C@@H](N3CCC(c4ccccc4OC(F)(F)F)CC3)C2)C1)C1(F)CC1` (single isomer, unassigned) [Example 9B, (R)-(1-fluorocyclopropyl)(6-(4-(2-(trifluoromethoxy)phenyl)piperidin-1-yl)-2-azaspiro[3.4]octan-2-yl)methanone or (S)-(1-fluorocyclopropyl)(6-(4-(2-(trifluoromethoxy)phenyl)piperidin-1-yl)-2-azaspiro[3.4]octan-2-yl)methanone], for which, in test [1], the “M4 FDSS PA” value was 66% and the pEC50 was 8.30. Besides, the “M2 FDSS PA” value in test [2] is listed as 0%.
`Cc1coc(N2CC3(CC[C@@H](N4CCC(c5ccccc5OCC(C)(C)O)CC4)C3)C2)n1` [Example 3O, (R)-2-methyl-1-(2-(1-(2-(4-methyloxazol-2-yl)-2-azaspiro[3.4]octan-6-yl)piperidin-4-yl)phenoxy)propan-2-ol]: in test [1], the Emax came to 1% and the pEC50 is below 4.60. Besides, the Emax in test [2] was found to be 0%.
Regarding `COc1ccccc1C1CCN([C@@H]2CCC3(C2)CN(c2ncns2)C3)CC1` (single isomer, unassigned) [Example 10Q, (R)-5-(6-(4-(2-methoxyphenyl)piperidin-1-yl)-2-azaspiro[3.4]octan-2-yl)-1,2,4-thiadiazole or (S)-5-(6-(4-(2-methoxyphenyl)piperidin-1-yl)-2-azaspiro[3.4]octan-2-yl)-1,2,4-thiadiazole], in test [1], the “M4 FDSS PA” value turned out to be 71% and the pEC50 was 8.10. Further, the “M2 FDSS PA” value in test [2] amounted to 18%.
The like results for `Fc1ccc(OC2CC3(COC3)C2)c(C2CCN([C@@H]3CCC4(C3)CN(c3cncnc3)C4)CC2)c1` (single isomer, unassigned) [Example 10F, (R)-6-(4-(2-((2-oxaspiro[3.3]heptan-6-yl)oxy)-5-fluorophenyl)piperidin-1-yl)-2-(pyrimidin-5-yl)-2-azaspiro[3.4]octane or (S)-6-(4-(2-((2-oxaspiro[3.3]heptan-6-yl)oxy)-5-fluorophenyl)piperidin-1-yl)-2-(pyrimidin-5-yl)-2-azaspiro[3.4]octane] were, in that order, 71%, 8.33 and 0%.
With `O=C(N1CC2(CC[C@@H](N3CCC(c4cc(F)ccc4C4CCOCC4)CC3)C2)C1)C1(F)CC1` (single isomer, unassigned) [Example 9K, (R)-(6-(4-(5-fluoro-2-(tetrahydro-2H-pyran-4-yl)phenyl)piperidin-1-yl)-2-azaspiro[3.4]octan-2-yl)(1-fluorocyclopropyl)methanone or (S)-(6-(4-(5-fluoro-2-(tetrahydro-2H-pyran-4-yl)phenyl)piperidin-1-yl)-2-azaspiro[3.4]octan-2-yl)(1-fluorocyclopropyl)methanone], in test [1], the “M4 FDSS PA” value worked out at 56% and the negative logarithm of the EC50 (pEC50) is 9.00. Moreover, the “M2 FDSS PA” value in test [2] was 0%.
Take `O[C@H]1CC[C@@H](c2ccccc2C2CCN([C@@H]3CCC4(C3)CN(c3nnco3)C4)CC2)CC1` (single isomer, unassigned) [Example 2N, (1S,4s)-4-(2-(1-((R)-2-(1,3,4-oxadiazol-2-yl)-2-azaspiro[3.4]octan-6-yl)piperidin-4-yl)phenyl)cyclohexan-1-ol or (1R,4r)-4-(2-(1-((R)-2-(1,3,4-oxadiazol-2-yl)-2-azaspiro[3.4]octan-6-yl)piperidin-4-yl)phenyl)cyclohexan-1-ol]: in test [1], the “M4 FDSS PA” value is reported as 81% and the pEC50 was 9.00. Besides, the “M2 FDSS PA” value in test [2] is given as 0%.
On to `Fc1ccc(OC2CCOCC2)c(C2CCN([C@@H]3CCC4(C3)CN(c3cncnc3)C4)CC2)c1` (single isomer, unassigned) [Example 10G, (R)-6-(4-(5-fluoro-2-((tetrahydro-2H-pyran-4-yl)oxy)phenyl)piperidin-1-yl)-2-(pyrimidin-5-yl)-2-azaspiro[3.4]octane or (S)-6-(4-(5-fluoro-2-((tetrahydro-2H-pyran-4-yl)oxy)phenyl)piperidin-1-yl)-2-(pyrimidin-5-yl)-2-azaspiro[3.4]octane], for which, in test [1], the “M4 FDSS PA” value was found to be 56% and the pEC50 is 8.30. Further, in test [2], the “M2 FDSS PA” value turned out to be 0%.
As for `COc1ccccc1C1CCN([C@@H]2CCC3(C2)CN(c2ccc(Cl)nn2)C3)CC1` [Example 5N, (R)-2-(6-chloropyridazin-3-yl)-6-(4-(2-methoxyphenyl)piperidin-1-yl)-2-azaspiro[3.4]octane], the Emax in test [1] was found to be 50%; in test [2], 35%. Moreover, in test [1], the pEC50 is 7.59.
For `O=C(N1CC2(CC[C@@H](N3CCC(c4ccccc4OC4CCOCC4)CC3)C2)C1)C1(F)CC1` (single isomer, unassigned) [Example 9E, (R)-(1-fluorocyclopropyl)(6-(4-(2-((tetrahydro-2H-pyran-4-yl)oxy)phenyl)piperidin-1-yl)-2-azaspiro[3.4]octan-2-yl)methanone or (S)-(1-fluorocyclopropyl)(6-(4-(2-((tetrahydro-2H-pyran-4-yl)oxy)phenyl)piperidin-1-yl)-2-azaspiro[3.4]octan-2-yl)methanone], in test [1], the “M4 FDSS PA” value is recorded as 55% and the pEC50 is 9.00. Further, the “M2 FDSS PA” value in test [2] was 0%.
As for `CC(C)(O)COc1ccccc1C1CCN([C@@H]2CCC3(C2)CN(c2cncnc2)C3)CC1` [Example 5B, (R)-2-methyl-1-(2-(1-(2-(pyrimidin-5-yl)-2-azaspiro[3.4]octan-6-yl)piperidin-4-yl)phenoxy)propan-2-ol], in test [1], the Emax came out at 53% and the pEC50 was 8.40. Besides, the Emax in test [2] was 0%.
For `COc1ccccc1C1CCN([C@@H]2CCC3(C2)CN(c2ncnc(C)n2)C3)CC1` [Example 5M, (R)-6-(4-(2-methoxyphenyl)piperidin-1-yl)-2-(4-methyl-1,3,5-triazin-2-yl)-2-azaspiro[3.4]octane], in that order: 43%, 7.29 and 0%.
